According to US7405211B2, “Therapeutic morpholino-substituted compounds” (AstraZeneca AB, priority 2000, dated 2008):

Assays:
[1] = system: K562 (leukaemia derived) and U937 (moncytic) cell lines; experiment: Cell proliferation assay; type: cell-based; conditions: 20 μM, 4 day incubation
Procedure: The anti-proliferative activity of the compounds of this invention from all three chemical classes was determined using K562 (leukaemia derived) and U937 (moncytic) cell lines. The cytotoxic activity of the compounds was monitored over four days by counting cell number and determining cell viability using a colourimetric assay metabolic activity.

[2] = system: PI 3-kinase immunoprecipitated from human platelets; experiment: In vitro PI 3-kinase assay (32P incorporation into PI); type: biochemical; conditions: PI 3-kinase from human platelets, PI substrate
Procedure: The effect of TGX-25, TGX-33, TGX-37, TGX-40, TGX-41, TGX-57, TGX-84, TGX-90, TGX-93, TGX-98, TGX-99, TGX-101, TGX-106, TGX-107, TGX-108, TGX-109, TGX-111, TGX-112, TGX-113, TGX-115, TGX-120, TGX-121, TGX-123, TGX-124, TGX-126, TGX-127, TGX-130 or TGX-131on PI 3-kinase activity was determined using an in vitro PI 3-kinase assay. This assay was performed using PI 3-kinase immunoprecipitated from human platelets as the enzyme and PI as the substrate. The PI 3-kinase activity was quantitated by measuring the enzymatic incorporation of [^32P] into PI, forming PI([^32P]-3)P, as previously described (Susa et al., 1992, The Journal of Biological Chemistry 267(32):22951-22956.
Washed human platelets were lysed in Triton X-100 lysis buffer (10 mM Tris, pH 7.4, 1% Triton X-100, 2 mM EDTA, 1 mM PMSF) for 30 minutes. The Triton X-100 insoluble fraction was removed by centrifugation of the cell lysates at 15,000 g for 10 minutes. PI 3-kinase was immunoprecipitated by mixing 500 μg of the cell lysate with 1 μg of a rabbit anti-rat antibody against the p85/110 form of PI 3-kinase and 30 μl of 50% Protein A-sepharose beads for 2 hours at 4° C. The Protein A-sepharose-bound PI 3-kinase was isolated by pelleting the beads at 15,000 g for 5 seconds, and washing three times with ice-old Triton X-100 lysis buffer followed by four washes with PI 3-kinase assay buffer (20 mM HEPES, pH 7.4, 1 mM EGTA, 5 mM MgCl2).
PI stored in CHCl3 was dried under N2, resuspended in the lipid buffer (50 mM HEPES, pH 7.2, 1 mM EDTA) at a final concentration of 330 μg/ml, and sonicated for 6 minutes on ice. PI([^32P]-3)P was generated by mixing the immunoprecipitated PI 3-kinase for 20 minutes with 40 μl of the PI, 10 μl of ATP (1 mM) and ^32P-r-ATP (0.5 μCi, 1 μCi/nmol), 10 μl of 10× kinase buffer, in a final assay volume of 100 μl adjusted with H2O. TGX-25, TGX-33, TGX-37, TGX-40, TGX-41, TGX-57, TGX-84, TGX-90, TGX-93, TGX-98, TGX-99, TGX-101, TGX-106, TGX-107, TGX-108, TGX-109, TGX-111, TGX-112, TGX-113, TGX-115, TGX-120, TGX-121, TGX-123, TGX-124, TGX-126, TGX-127, TGX-130 or TGX-131 was preincubated with the PI 3-kinase for 5 minutes prior to the addition of ATP. The assay was terminated with 100 μl of 1 N HCl, and the PI([^32P]-3)P product extracted with 200 μl chloroform:methanol (1:1) and 500 μl 2 M KCl. The PI([^32P]-3)P in the chloroform phase was resolved by thin layer chromatography using a solvent system containing CHCl3:MeOH:HAC:H2O (43:38:5:7) (v:v:v:v), and visualized by autoradiography. The PI([^32P]-3)P spots were then scraped off from the TLC plates, deacylated with 1 ml methylamine:butanol:methanol (42:9:47) (v:v:v) for 4 hours at 53° C., and quantitated using a liquid scintillation counter (LKB 1209 RackBETA).

[3] = molecular target: tyrosine kinase EGF (Homo sapiens, UniProt P00533); experiment: Enzyme screening assay: tyrosine kinase EGF; type: biochemical
Chain of tyrosine kinase EGF (P00533 25-1210): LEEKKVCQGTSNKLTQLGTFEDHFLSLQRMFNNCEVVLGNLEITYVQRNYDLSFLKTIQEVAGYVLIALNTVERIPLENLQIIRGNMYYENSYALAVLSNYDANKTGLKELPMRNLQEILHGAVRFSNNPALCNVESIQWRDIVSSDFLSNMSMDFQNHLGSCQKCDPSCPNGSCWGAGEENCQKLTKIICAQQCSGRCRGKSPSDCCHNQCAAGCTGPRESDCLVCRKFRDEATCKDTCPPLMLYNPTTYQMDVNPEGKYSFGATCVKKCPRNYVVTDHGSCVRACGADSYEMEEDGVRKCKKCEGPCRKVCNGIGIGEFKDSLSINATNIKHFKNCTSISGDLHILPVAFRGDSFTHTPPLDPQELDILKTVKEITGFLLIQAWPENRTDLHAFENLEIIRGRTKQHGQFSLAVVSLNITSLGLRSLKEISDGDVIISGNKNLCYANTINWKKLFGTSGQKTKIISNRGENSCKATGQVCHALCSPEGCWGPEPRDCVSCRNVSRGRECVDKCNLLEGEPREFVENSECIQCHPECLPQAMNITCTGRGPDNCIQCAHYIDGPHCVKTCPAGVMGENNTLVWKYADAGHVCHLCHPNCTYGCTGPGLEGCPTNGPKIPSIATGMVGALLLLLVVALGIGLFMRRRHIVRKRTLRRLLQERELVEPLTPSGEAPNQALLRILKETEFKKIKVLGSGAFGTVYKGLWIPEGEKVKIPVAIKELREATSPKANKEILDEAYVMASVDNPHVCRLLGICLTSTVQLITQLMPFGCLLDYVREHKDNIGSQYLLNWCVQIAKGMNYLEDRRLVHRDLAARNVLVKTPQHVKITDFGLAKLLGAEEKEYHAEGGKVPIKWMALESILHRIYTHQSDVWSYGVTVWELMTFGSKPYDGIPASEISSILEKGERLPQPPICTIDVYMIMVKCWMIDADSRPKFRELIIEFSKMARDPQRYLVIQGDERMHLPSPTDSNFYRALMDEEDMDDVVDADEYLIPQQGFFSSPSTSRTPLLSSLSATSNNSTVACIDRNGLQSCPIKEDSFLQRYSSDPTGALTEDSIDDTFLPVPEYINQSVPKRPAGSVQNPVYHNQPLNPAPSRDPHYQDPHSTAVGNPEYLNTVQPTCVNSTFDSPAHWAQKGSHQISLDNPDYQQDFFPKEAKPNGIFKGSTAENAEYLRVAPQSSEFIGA
Source text: (§1) The two leading compounds of the quinolone series, TGX155 and TGX84 were screened for activity against seven enzymes related to PI3K in function or substrate specificity, viz: ATPase, PDE4, tyrosine kinases EGF and fyn, protein kinases A and C, and tyrosine phosphatase.

[4] = molecular target: PI3K α/β isoforms; experiment: In vitro enzyme assay PI3K α/β; type: biochemical; conditions: immunoprecipitated from platelet lysate
Procedure: (§2) In vitro enzyme assays were conducted as a primary screen to determine drug candidate isoform affinity and specificity.
(§3) The α and β isoforms of the PI3K were immunoprecipitated from a platelet lysate using an antibody that recognised the p85 regulatory subunit common to both forms of the enzyme. The γ isoform was produced as a recombinant protein in the Thrombogenix laboratories. […] Standard phosphorylation assays using phosphatidylinositol and ^32P were used to measure the enzyme activity in the immunoprecipates in the presence or absence of an inhibitor. Enzyme activity was determined over a range of inhibitor concentrations to establish an IC50 value.

[5] = molecular target: tyrosine kinase fyn (Homo sapiens, UniProt P06241); experiment: Enzyme screening assay: tyrosine kinase fyn; type: biochemical
Chain of tyrosine kinase fyn (P06241 whole entry): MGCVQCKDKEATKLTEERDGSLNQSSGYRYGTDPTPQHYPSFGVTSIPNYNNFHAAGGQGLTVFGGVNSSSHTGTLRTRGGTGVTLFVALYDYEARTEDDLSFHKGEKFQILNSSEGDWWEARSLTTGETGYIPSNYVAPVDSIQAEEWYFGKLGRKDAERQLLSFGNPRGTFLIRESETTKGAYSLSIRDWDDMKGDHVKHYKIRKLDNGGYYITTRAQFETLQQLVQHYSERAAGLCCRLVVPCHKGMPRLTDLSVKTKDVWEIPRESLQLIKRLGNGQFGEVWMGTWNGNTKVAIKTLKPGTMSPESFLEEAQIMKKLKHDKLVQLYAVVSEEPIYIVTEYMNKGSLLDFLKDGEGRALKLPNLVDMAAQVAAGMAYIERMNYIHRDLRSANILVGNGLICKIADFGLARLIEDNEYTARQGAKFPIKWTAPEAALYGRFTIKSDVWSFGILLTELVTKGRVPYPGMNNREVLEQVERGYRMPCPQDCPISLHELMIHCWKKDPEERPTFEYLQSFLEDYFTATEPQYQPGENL
Source text: as §1

[6] = system: platelet thrombus formation; experiment: Platelet thrombus formation under flow, citrated whole blood, vWf-coated microcapillary tubes (LDH); type: cell-based; conditions: 50, 100, 200 μM, 600 s^−1
Procedure: Citrated whole blood was pretreated with 50, 100 or 200 μM TGX-84, or control buffer (0.1% DMSO) for 10 minutes at 37° C. Blood was perfused through von Willebrand factor-(vWf) coated microcapillary tubes for 2 minutes at 600 s^−1. Non-adherent cells were removed by perfusion of buffer for 2 minutes at 600 s^−1 and any adherent erythrocytes lysed through treatment with 1% ammonium oxalate. Adherent platelets were then lysed through addition of 1% Triton X-100 and lactate dehydrogenase (LDH) levels (U/L) analysed by spectrophotometry.

[7] = molecular target: T1, PI4K; experiment: In vitro enzyme assay PI4K; type: biochemical; conditions: PI4K isolated from platelets; read-out: IC50 against PI4K
T1 construct: PI4K was isolated from platelets in a similar manner using a PI4K specific antibody
Procedure: In vitro enzyme assays were conducted as a primary screen to determine drug candidate isoform affinity and specificity. The affinity of two leading compounds of the quinolone series (TGX84 and TGX155) for a closely related enzyme family, PI4K, was also determined to maximise compound specificity and therefore minimise potential adverse biochemical events.
The α and β isoforms of the PI3K were immunoprecipitated from a platelet lysate using an antibody that recognised the p85 regulatory subunit common to both forms of the enzyme. The γ isoform was produced as a recombinant protein in the Thrombogenix laboratories. PI4K was isolated from platelets in a similar manner using a PI4K specific antibody. Standard phosphorylation assays using phosphatidylinositol and ^32P were used to measure the enzyme activity in the immunoprecipates in the presence or absence of an inhibitor. Enzyme activity was determined over a range of inhibitor concentrations to establish an IC50 value.

[8] = molecular target: T2, PI3K γ (Homo sapiens, UniProt P48736); experiment: In vitro enzyme assay PI3K γ (recombinant); type: biochemical; conditions: recombinant γ isoform
T2 construct: made in house
T2 sequence (P48736 whole entry, species assumed, canonical isoform): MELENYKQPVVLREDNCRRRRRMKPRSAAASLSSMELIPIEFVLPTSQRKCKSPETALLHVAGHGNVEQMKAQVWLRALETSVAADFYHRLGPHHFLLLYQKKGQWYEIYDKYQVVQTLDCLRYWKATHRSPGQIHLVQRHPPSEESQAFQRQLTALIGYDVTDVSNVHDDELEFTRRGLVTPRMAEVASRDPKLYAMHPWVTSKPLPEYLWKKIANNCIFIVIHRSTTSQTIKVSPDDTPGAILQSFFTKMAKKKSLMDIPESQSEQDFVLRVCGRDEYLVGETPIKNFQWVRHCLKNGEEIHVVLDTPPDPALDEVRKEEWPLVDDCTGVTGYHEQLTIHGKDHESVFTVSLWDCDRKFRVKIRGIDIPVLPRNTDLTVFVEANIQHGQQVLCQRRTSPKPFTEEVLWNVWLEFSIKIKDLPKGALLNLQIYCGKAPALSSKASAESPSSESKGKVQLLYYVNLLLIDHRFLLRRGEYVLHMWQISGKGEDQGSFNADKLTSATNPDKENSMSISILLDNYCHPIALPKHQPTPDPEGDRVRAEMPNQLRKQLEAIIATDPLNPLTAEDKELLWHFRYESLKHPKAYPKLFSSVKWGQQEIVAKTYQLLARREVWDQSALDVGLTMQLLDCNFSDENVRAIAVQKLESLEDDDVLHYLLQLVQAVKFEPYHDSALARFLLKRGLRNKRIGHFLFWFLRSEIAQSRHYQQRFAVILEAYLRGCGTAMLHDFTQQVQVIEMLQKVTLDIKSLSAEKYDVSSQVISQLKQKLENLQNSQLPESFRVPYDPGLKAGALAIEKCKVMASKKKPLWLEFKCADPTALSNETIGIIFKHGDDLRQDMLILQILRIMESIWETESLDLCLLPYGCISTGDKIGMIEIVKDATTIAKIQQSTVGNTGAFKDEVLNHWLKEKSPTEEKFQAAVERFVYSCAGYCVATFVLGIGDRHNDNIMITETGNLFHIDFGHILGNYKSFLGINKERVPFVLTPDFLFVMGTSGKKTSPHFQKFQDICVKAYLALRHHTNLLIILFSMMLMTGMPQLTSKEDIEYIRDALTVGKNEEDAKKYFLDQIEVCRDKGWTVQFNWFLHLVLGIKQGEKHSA
Procedure: as §2, §3

[9] = system: platelets; experiment: Flow-based reconstitution assay: platelet adhesion to vWf-coated glass microslides; type: cell-based; conditions: 30 min pretreatment, shear rate 1800 s^−1
Procedure: The effect of TGX-40 on platelet adhesion was examined using a flow-based adhesion assay. Washed platelets were pretreated with 10, 25, or 50 μM TGX-40, or control buffer (0.1% DMSO) for 30 minutes at 37° C. prior to reconstitution with red blood cells to a hematocrit of 50%. The platelets and reconstituted red blood cells were perfused through vWf-coated glass microslides for 1 minute at a shear rate of 1800 s^−1. Non-adherent cells were removed by washing for 10 minutes at 1800 s^−1 and the number of adherent platelet were quantitated and expressed as the mean±SEM. As illustrated graphically in FIG. 1, TGX40 inhibited the ability of platelets to adhere in a dose-dependent manner, showing a decrease of 51, 67 and 86% in platelet adhesion when platelets were pretreated with 10, 25, and 50 μM TGX-40.

[10] = system: platelet thrombus formation; experiment: Whole-blood flow assay: platelet thrombus formation on vWf matrix (platelet LDH); type: cell-based; conditions: shear rate 1800 s^−1
Procedure: The inhibitory effect of TGX-40 on platelet thrombus formation was examined using a whole-blood flow assay, since thrombi formed by washed platelets are small and poorly reproducible. Anticoagulated whole blood was incubated with 50, 100, or 200 μM TGX-40, or control buffer (0.1% DMSO) for 30 minutes with gentle rocking prior to perfusion through vWf-coated glass microslides for 2 minutes at a shear rate of 1800 s^−1. Non-adherent platelets were removed by washing for 10 minutes at 1800 s^−1, and adherent erythrocytes were lysed with 1% ammonium oxalate. The level of thrombus formation was quantitated indirectly by measuring platelet LDH (U/L) levels in the whole cell lysates by spectrophotometry. Following a 2-minute perfusion of whole blood, platelet-rich thrombi were observed over the surface of the microslide. […] As illustrated graphically in FIG. 2, pretreatment of whole blood with 50, 100, and 200 μM TGX-40 led to a decrease of 25, 53, and 80% in thrombus formation relative to control.

[11] = system: rats producing regular cyclic flow reductions (CFRs); experiment: Animal model of internal carotid artery occlusion (Folts model, cyclic flow reductions); type: in vivo; conditions: rat
Source text: The inhibitory effect of TGX-40 was examined in the well established animal model of arterial thrombosis of Folts et al., 1982, Circulation 65:248-255. This model is used to investigate the effects of antithrombotic drugs on clotting time in vivo in response to a crush injury followed by arterial stenosis.
The carotid artery of an anesthetized rat is dissected out, and an electromagnetic flow probe is placed around the artery to measure blood flow. Proximal to the flow probe, the artery is clamped with surgical forceps covered with silicone tubing to cause intimal and medial damage to the vessel wall. A ligature, or plastic cylinder of appropriate inside diameter is laced around the artery to produce a 70% reduction in arterial diameter.
Platelets aggregate in the area of the stenosed and damaged arterial vessel, gradually forming an occlusive platelet thrombus, seen as a decrease in blood flow. As the thrombus forms, blood pressure increases, causing the thrombus to fragment and embolize distal to the stenosed site. […] This causes a sudden restoration of blood flow. Platelets again aggregate in the area of the stenosed and damaged arterial vessel, repeating the thrombus-embolization pattern. […]
TGX-40 was administered at doses of 1.6 mg/kg and 3.2 mg/kg via the jugular vein and the stabilization of blood flow was recorded.

Row | Compound | IC50 [2] | IC50 [3] | IC50 [4] | IC50 [5] | IC50 [7] | IC50 [8] | % Cells remaining [1] | other results
1 | Cc1cc(CNc2ccc(F)cc2C)c2nc(N3CCOCC3)cc(=O)n2c1 [TGX-186] | – | – | – | – | – | – | 1.5% | –
2 | O=c1cc(N2CCOCC2)[nH]c2c(Oc3ccccc3)cccc12 [TGX-84, 2-Morpholino-8-phenoxy-4-quinolone] | 100 nM | > 100000 nM | 100 nM | > 100000 nM | 100000 nM | 5000 nM | – | thrombosis formation relative to control [6]: decrease in thrombosis formation relative to control
3 | Cc1cc(F)ccc1Oc1cccc2c(=O)cc(N3CCOCC3)[nH]c12 [TGX-155, 8-(4′-Fluoro-2′-methylphenoxy)-2-morpholino-4-quinolone] | 20 nM | > 100000 nM | 20 nM | > 100000 nM | 100000 nM | 5000 nM | – | –

Further lines, with some results ahead:

Row | IC50 [2] | IC50 [3] | IC50 [4] | IC50 [5] | IC50 [7] | IC50 [8] | Compound | % Cells remaining [1] | other results
4 | 200 nM | – | – | – | – | – | Cc1cc(N[C@H](C)c2ccccc2)c2nc(N3CCOCC3)cc(=O)n2c1 [TGX-123] | 10% | –
5 | 50 nM | – | 50 nM | – | – | 5000 to 10000 nM | Cc1cc(NCc2ccccc2Cl)c2nc(N3CCOCC3)cc(=O)n2c1 [TGX-167] | 1.5% | –
6 | ~1500 nM | – | – | – | – | – | O=c1cc(N2CCOCC2)nc2c(Cc3ccccc3)cccn12 [TGX-40] | 75% | decrease in platelet adhesion ([9]; 10 μM): 51%; decrease in platelet adhesion ([9]; 25 μM): 67%; decrease in platelet adhesion ([9]; 50 μM): 86%; decrease in thrombus formation relative to control ([10]; 50 μM): 25%; decrease in thrombus formation relative to control ([10]; 100 μM): 53%; decrease in thrombus formation relative to control ([10]; 200 μM): 80%; treated animals returned to baseline within 10 minutes ([11]; 1.6 mg/kg via the jugular vein): 90%; treated animals returned to baseline within 10 minutes ([11]; 3.2 mg/kg via the jugular vein): 90%
